Consider 30 molecules from patent US20100137313A1 (ASTRAZENECA AB, priority 2008, published 2010).

SMILES strings stand for the structures.

For one experiment, the target named is S. pneumoniae Topoisomerase IV ATPase (ParE) (Streptococcus pneumoniae serotype 4, UniProt Q59961). Description: S. pneumoniae Topoisomerase IV ATPase inhibition. It is filed as biochemical. As to conditions: values marked * are an average of two or more data points. The method in brief: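 Phosphate release by ParE ATPase from S. pneumoniae read colorimetrically (malachite green, 650 nm), enzyme 1.25 nM, ATP 160 μM, salmon sperm DNA present, buffer 20 mM Tris pH 8.0 with 8 mM MgCl2. IC50 over 10 compound concentrations, EDTA (20 μM) and DMSO controls defining inhibition range.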
Sequence of S. pneumoniae Topoisomerase IV ATPase (ParE) (Q59961 whole entry): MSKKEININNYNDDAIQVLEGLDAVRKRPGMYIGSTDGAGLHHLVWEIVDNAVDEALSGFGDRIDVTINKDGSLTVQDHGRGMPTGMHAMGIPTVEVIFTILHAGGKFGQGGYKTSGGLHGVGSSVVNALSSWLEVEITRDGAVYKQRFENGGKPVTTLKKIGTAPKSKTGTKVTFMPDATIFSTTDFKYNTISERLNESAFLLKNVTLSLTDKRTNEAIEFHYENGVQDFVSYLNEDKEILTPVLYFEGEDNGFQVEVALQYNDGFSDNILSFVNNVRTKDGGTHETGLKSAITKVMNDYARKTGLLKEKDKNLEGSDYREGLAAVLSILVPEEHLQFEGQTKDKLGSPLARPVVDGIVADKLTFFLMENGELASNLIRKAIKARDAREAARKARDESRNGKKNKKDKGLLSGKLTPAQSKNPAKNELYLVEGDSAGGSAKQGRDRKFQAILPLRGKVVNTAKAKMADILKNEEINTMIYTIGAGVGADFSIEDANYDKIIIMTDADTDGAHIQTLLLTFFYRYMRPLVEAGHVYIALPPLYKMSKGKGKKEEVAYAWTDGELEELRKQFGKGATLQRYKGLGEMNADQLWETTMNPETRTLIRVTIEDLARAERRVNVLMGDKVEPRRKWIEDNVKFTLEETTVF
Regarding `O=C(O)[C@H]1C[C@H]1c1cccc(-c2cnc(Nc3ccc(F)c(Cl)c3)nc2-n2ccc(C(F)(F)F)n2)c1` [Example 576, (1S,2R)-2-(3-(2-(3-chloro-4-fluorophenvlamino)-4-(3-(trifluoromethyl)-1H-pyrazol-1-yl)pyrimidin-5-yl)phenyl)cyclopropanecarboxylic acid], the “% Inh (13 μM) of S. pneumoniae Topoisomerase IV ATPase” value is 100%.

Staying with this experiment, now noted: values marked * are an average of two or more data points, read-out: % Inh (13 μM) of S. pneumoniae Topoisomerase IV ATPase.
Take `COc1cc(Nc2ncc(-c3cnc(OC)c(C(=O)NS(=O)(=O)CS(C)(=O)=O)c3)c(-n3nc(C(F)(F)F)cc3C)n2)cc(OC)c1` [Example 838, 5-{2-[(3,5-dimethoxyphenyl)amino]-4-[5-methyl-3-(trifluoromethyl)-1H-pyrazol-1-yl]pyrimidin-5-yl}-2-methoxy-N-{[(methylsulfonyl)methyl]sulfonyl}pyridine-3-carboxamide]: the inhibition at 13 µM stood at 99%. In the case of `Cc1cc(C)cc(Nc2ncc(-c3cncc(C(=O)O)c3)c(N3CCOCC3)n2)c1` [Example 389, 5-[2-(3,5-Dimethyl-phenylamino)-4-morpholin-4-yl-pyrimidin-5-yl]-nicotinic acid], the inhibition at 13 µM was determined as 85%. The same measure, in the same setting: the value for `CN(C)CCCNc1nc(Nc2ccc(F)c(Cl)c2)ncc1-c1ccc(/C=C/C(=O)O)cc1` [Example 24, (2E)-3-[4-(2-[(3-chloro-4-fluorophenyl)amino]-4-{[3-(dimethylamino)propyl]-amino}pyrimidin-5-yl)phenyl]prop-2-enoic acid] was 98.1%.

Consider `COc1cc(-c2cnc(Nc3ccc(F)c(Cl)c3)nc2NCCCN(C)C)cc(OC)n1` [Example 8, N^2-(3-chloro-4-fluorophenyl)-5-(2,6-dimethoxypyridin-4-yl)-N^4-(3-(dimethylamino)propyl)-pyrimidin-2,4-diamine], for which the inhibition at 13 µM was 87.6%. Same read-out and setting: the value for `Cc1cc(C(F)(F)F)nn1-c1nc(Nc2cc(F)cc(C#N)c2)ncc1-c1cccc(/C=C/C(=O)O)c1` [Example 1116, (E)-3-(3-(2-(3-cyano-5-fluorophenylamino)-4-(5-methyl-3-(trifluoromethyl)-1H-pyrazol-1-yl)pyrimidin-5-yl)phenyl)acrylic acid] was 97%; that for `O=C(O)c1cncc(-c2cnc(Nc3ccc(F)c(Cl)c3)nc2NCC2CCCO2)c1` (stereo not drawn) [Example 235, 5-[2-[(3-chloro-4-fluorophenyl)amino]-4-(oxolan-2-ylmethylamino)pyrimidin-5-yl]pyridine-3-carboxylic acid] was 81.2%. Regarding `COc1cc(Nc2ncc(-c3ccc4c(c3)C(=O)NS4(=O)=O)c(-n3nc(C(F)(F)F)cc3C)n2)cc(OC)c1` [Example 830, 5-{2-[(3,5-dimethoxyphenyl)amino]-4-[5-methyl-3-(trifluoromethyl)-1H-pyrazol-1-yl]pyrimidin-5-yl}-1,2-benzothiazol-3(2H)-one 1,1-dioxide], the inhibition at 13 µM turned out to be 100%.

For `CCOC(=O)c1cncc(-c2cnc(Nc3ccc(F)c(Cl)c3)nc2NCCNC(C)=O)c1` [Example 94, 5-[4-(2-Acetylamino-ethylamino)-2-(3-chloro-4-fluoro-phenylamino)-pyrimidin-5-yl]-nicotinic acid ethyl ester], the inhibition at 13 µM was determined as 77.5%. On the same count and under the same terms, the value for `Cc1cc(C)cc(Nc2ncc(-c3cnc(OCCS(C)(=O)=O)c(C(=O)O)c3)c(-n3ccc(C(F)(F)F)n3)n2)c1` [Example 964] was 40%; that for `O=C(O)c1cncc(-c2cnc(Nc3ccc(F)c(Cl)c3)nc2NCCN2CCS(=O)(=O)CC2)c1` [Example 231, 5-{2-(3-Chloro-4-fluoro-phenylamino)-4-[2-(1,1-dioxo-1λ^6-thiomorpholin-4-yl)-ethylamino]-pyrimidin-5-yl}-nicotinic acid] was 81.5%; that for `CC1CCC(C)N1c1nc(Nc2ccc(F)c(Cl)c2)ncc1-c1cncc(C(=O)O)c1` (stereo not drawn) [Example 252, 5-[2-[(3-chloro-4-fluorophenyl)amino]-4-(2,5-dimethylpyrrolidin-1-yl)pyrimidin-5-yl]pyridine-3-carboxylic acid] was 81.8%. The same measure, in the same setting: the value for `COc1cc(Cl)cc(Nc2ncc(-c3cnc(OC)c(C(=O)O)c3)c(-n3nc(C(F)(F)F)cc3C)n2)c1` [Example 759, 5-{2-[(3-chloro-5-methoxyphenyl)amino]-4-[5-methyl-3-(trifluoromethyl)-1H-pyrazol-1-yl]pyrimidin-5-yl}-2-methoxypyridine-3-carboxylic acid] was 100%; that for `CCOC(=O)c1cncc(-c2cnc(Nc3ccc(F)c(Cl)c3)nc2NCCc2ccncc2)c1` [Example 103, 5-[2-(3-Chloro-4-fluoro-phenylamino)-4-(2-pyridin-4-yl-ethylamino)-pyrimidin-5-yl]-nicotinic acid ethyl ester] was 79.5%; that for `COc1cc(Nc2ncc(-c3cnc(OCCNC(C)=O)c(C(=O)O)c3)c(-n3nc(C(F)(F)F)cc3C)n2)cc(OC)c1` [Example 957, 2-(2-acetamidoethoxy)-5-(2-(3,5-dimthoxyphenylamino)-4-(5-methyl-3-(trifluoromethyl)-1H-pyrazol-1-yl)pyrimidin-5-yl)nicotinic acid] was 100%. Same read-out and setting: the value for `CN(C)CCn1cc(C(=O)O)c(=O)c2cc(-c3cnc(Nc4ccc(F)c(Cl)c4)nc3-n3ccc(C(F)(F)F)n3)ccc21` [Example 1070, 6-(2-(3-Chloro-4-fluorophenylamino)-4-(3-(trifluoromethyl)-1H-pyrazol-1-yl)pyrimidin-5-yl)-1-(2-(dimethylamino)ethyl)-4-oxo-1,4-dihydroquinoline-3-carboxylic acid] was 93%; that for `Cc1cnc(CNc2nc(Nc3ccc(F)c(Cl)c3)ncc2-c2cncnc2)cn1` [Example 58, N^2-(3-chloro-4-fluorophenyl)-N^4-[(5-methylpyrazin-2-yl)methyl]-5-pyrimidin-5-ylpyrimidine-2,4-diamine] was 58%. Take `Fc1ccc(Nc2ncc(-c3cncnc3)c(-n3nccn3)n2)cc1Cl` [Example 86, N-(3-chloro-4-fluorophenyl)-4-(2H-1,2,3-triazol-2-yl)-5,5′-bipyrimidin-2-amine]: the inhibition at 13 µM came to 91.1%. On the same count and under the same terms, the value for `CC1(C)[C@@H](C(=O)O)[C@@H]1c1cccc(-c2cnc(Nc3ccc(F)c(Cl)c3)nc2-n2ccc(C(F)(F)F)n2)c1` [Example 572, (1,3-trans)-3-(3-(2-(3-chloro-4-fluorophenylamino)-4-(3-(trifluoromethyl)-1H-pyrazol-1-yl)pyrimidin-5-yl)phenyl)-2,2-dimethylcyclopropanecarboxylic acid] was 100%. Same read-out and setting: the value for `CN(C)CCCNc1nc(Nc2ccc(F)c(Cl)c2)ncc1-c1cccc([N+](=O)[O-])c1` [Example 14, N^2-(3-chloro-4-fluorophenyl)-N^4-[3-(dimethylamino)propyl]-5-(3-nitrophenyl) pyrimidin-2,4-diamine] was 100%.

For `Cc1cc(C)cc(Nc2ncc(-c3cncc(C(=O)O)c3)c(-n3nc(C(F)(F)F)cc3C)n2)c1` [Example 638, 5-{2-[(3,5-dimethylphenyl)amino]-4-[5-methyl-3-(trifluoromethyl)-1H-pyrazol-1-yl]pyrimidin-5-yl}pyridine-3-carboxylic acid], the inhibition at 13 µM came out at 100%. Still for that read-out and setting: the value for `O=C(O)c1cncc(-c2cnc(Nc3ccc(F)c(Cl)c3)nc2-n2ccnn2)c1` [Example 329, 5-{2-[(3-chloro-4-fluorophenyl)amino]-4-(1H-1,2,3-triazol-1-yl)pyrimidin-5-yl}pyridine-3-carboxylic acid] was 116%. Still for that read-out and setting: the value for `CCOC(=O)/C=C/c1cccc(-c2cnc(Nc3ccc(F)c(Cl)c3)nc2NCCCNC(=O)c2cnc(C)cn2)c1` [Example 165] was 56.9%; that for `COc1ncc(-c2cnc(Nc3cc(Cl)cc(C#N)c3)nc2-n2ccc(C(F)(F)F)n2)cc1C(=O)O` [Example 917, 5-(2-(3-chloro-5-cyanophenylamino)-4-(3-(trifluoromethyl)-1H-pyrazol-1-yl)pyrimidin-5-yl)-2-methoxynicotinic acid] was 100%. Same read-out and setting: the value for `CCC(C)Nc1nc(Nc2ccc(F)c(Cl)c2)ncc1-c1cc2ccccc2o1` (stereo not drawn) [Example 1108, 5-(1-benzofuran-2-yl)-N′-butan-2-yl-N-(3-chloro-4-fluorophenyl)pyrimidine-2,4-diamine] was 18%; that for `COc1cc(Nc2ncc(-c3cccc(/C=C/C(=O)O)c3)c(-n3ccc(C(F)(F)F)n3)n2)cc(OC)c1` [Example 615, (2E)-3-(3-{2-[(3,5-dimethoxyphenyl)amino]-4-[3-(trifluoromethyl)-1H-pyrazol-1-yl]pyrimidin-5-yl}phenyl)prop-2-enoic acid] was 100%. Turning to `Cc1cc(C(F)(F)F)nn1-c1nc(Nc2ccc3c(c2)CCC3)ncc1-c1cccc(/C=C/C(=O)O)c1` [Example 656, (2E)-3-(3-{2-(2,3-dihydro-1H-inden-5-ylamino)-4-[5-methyl-3-(trifluoromethyl)-1H-pyrazol-1-yl]pyrimidin-5-yl}phenyl)prop-2-enoic acid], the inhibition at 13 µM came to 78%.

Turning to `O=C(O)c1cncc(-c2cnc(Nc3ccc(F)cc3)nc2N2CCOCC2)c1` [Example 435], the inhibition at 13 µM is 51%. Still for that read-out and setting: the value for `Cc1cc(C(F)(F)F)nn1-c1nc(Nc2ccc(F)c(Cl)c2)ncc1-c1cnc(NCCN2CCOCC2)c(C(=O)O)c1` [Example 1078, 5-(2-(3-Chloro-4-fluorophenylamino)-4-(5-methyl-3-(trifluoromethyl)-1H-pyrazol-1-yl)pyrimidin-5-yl)-2-(2-morpholinoethylamino)nicotinic acid] was 100%; that for `Cn1ccnc1COc1ncc(-c2cnc(Nc3ccc(F)c(Cl)c3)nc2-n2ccc(C(F)(F)F)n2)cc1C(=O)O` [Example 961, 5-(2-(3-chloro-4-fluorophenylamino)-4-(3-(trifluoromethyl)-1H-pyrazol-1-yl)pyrimidin-5-yl)-2-((1-methyl-1H-imidazol-2-yl)methoxy)nicotinic acid] was 100%.
